Data on seven molecules can be found in US11161815B2, “Hydrocarbylsulfonyl-substituted pyridines and their use in the treatment of cancer” (Oblique Therapeutics AB, priority 2017, dated 2021).

Where only a bound is given, the exact number is not on record here.

Assay [1] deals with gluthathione reductase (GR) (Homo sapiens (Human), UniProt P00390). The assay can be described thus: Inhibition of recombinant GR (GSSG assay). The assay is classed as biochemical. To be noted: 2 nM GR, 250 μM NADPH, 15 minutes incubation. The method, then:
(§1) Small molecule inhibition of recombinant thioredoxin reductase 1 (TrxR1) and gluthathione reductase (GR) was examined in 96-well plate format. 30 nM TrxR1 was incubated in the presence of 250 μM NADPH, 0.1 mg/ml BSA, and various concentrations of compound (1% DMSO final) in 50 mM Tris (pH 7.5) and 2 mM EDTA buffer for 15 minutes. Following the incubation period, 2 mM DTNB was added to each well and the change in O.D. at 412 nm was followed. Percent activity was determined using DMSO vehicle and no TrxR1 (blank) controls. 2 nM GR was incubated in the presence of 250 μM NADPH, 0.1 mg/ml BSA, and various concentrations of compounds (1% DMSO final) in 50 mM Tris (pH 7.5) and 2 mM EDTA buffer for 15 minutes. Following the incubation period, 1 mM GSSG was added to each well and the change in O.D. at 340 nm was followed. Percent activity was determined using DMSO vehicle and no GR (blank) controls.

For assay [2], the target named is recombinant thioredoxin reductase 1 (TrxR1) (Homo sapiens (Human), UniProt Q16881). The assay can be described thus: Inhibition of recombinant TrxR1 (DTNB assay). The class given is biochemical. As to conditions: 30 nM TrxR1, 250 μM NADPH, 15 minutes incubation, read-out: TrxR Assay IC50. The protocol:
as §1

For a further assay, the system named is FaDu cells. The assay can be described thus: Head and neck cancer cell viability assay (Cell-Quanti Blue). The class given is cell-based. To be noted: Homo sapiens, 72 hrs, 10% FBS media containing 25 nM selenite. The method, then:
FaDu cells were plated 2000 cells/well in 96-well black optical plates in the presence of 10% FBS media containing 25 nM selenite. The following day cells were treated with various concentrations of the compound of Example 1 (0.1% DMSO final) and incubated for 72 hrs. After the incubation Cell-Quanti Blue reagent was added to each well and incubated for additional 3 hrs. Fluorescence was read ex:530 nm/em:590 nm, and percent of viability was determined using DMSO vehicle and no cell (blank) controls.

Another assay deals with MDA-MB-468. The assay can be described thus: Cancer cell viability assay (MTT), MDA-MB-468. The assay is classed as cell-based. To be noted: Homo sapiens, 72 hrs, 10% FBS media. The protocol: (§2) Breast cancer and glioblastoma cell lines were plated 4000 cells/well in 96-well plates in the presence of 10% FBS media. The following day cells were treated with various concentrations of the example compounds (0.1% DMSO final) and incubated for 72 hrs. After the incubation An MTT assay was performed to access cell viability. Percent of viability was determined using DMSO vehicle and no cell (blank) controls.

In the next assay the test system is MDA-MB-231 cells. The experiment in a line: Breast cancer cell viability assay (Alamar Blue). As to conditions: Homo sapiens, 72 hrs, 10% FBS media containing 25 nM selenite. The assay is classed as cell-based. The method, then:
MDA-MB-231 cells were plated 2000 cells/well in 96-well black optical plates in the presence of 10% FBS media containing 25 nM selenite. The following day cells were treated with various concentrations of compounds (0.1% DMSO final) and incubated for 72 hrs. After the incubation Alamar Blue reagent was added to each well and incubated for additional 3 hrs. Fluorescence was read ex:530 nm/em:590 nm, and percent of viability was determined using DMSO vehicle and no cell (blank) controls.

For another assay, the system named is MDA-MB-231. The assay can be described thus: Cancer cell viability assay (MTT), MDA-MB-231. The assay is classed as cell-based. To be noted: Homo sapiens, 72 hrs, 10% FBS media. The protocol: as §2
The test system of a further assay is U-87 MG. The experiment in a line: Cancer cell viability assay (MTT), U-87 MG. To be noted: Homo sapiens, 72 hrs, 10% FBS media. The class given is cell-based. The method, then: as §2

Chain of recombinant thioredoxin reductase 1 (TrxR1) (Q16881 151-649): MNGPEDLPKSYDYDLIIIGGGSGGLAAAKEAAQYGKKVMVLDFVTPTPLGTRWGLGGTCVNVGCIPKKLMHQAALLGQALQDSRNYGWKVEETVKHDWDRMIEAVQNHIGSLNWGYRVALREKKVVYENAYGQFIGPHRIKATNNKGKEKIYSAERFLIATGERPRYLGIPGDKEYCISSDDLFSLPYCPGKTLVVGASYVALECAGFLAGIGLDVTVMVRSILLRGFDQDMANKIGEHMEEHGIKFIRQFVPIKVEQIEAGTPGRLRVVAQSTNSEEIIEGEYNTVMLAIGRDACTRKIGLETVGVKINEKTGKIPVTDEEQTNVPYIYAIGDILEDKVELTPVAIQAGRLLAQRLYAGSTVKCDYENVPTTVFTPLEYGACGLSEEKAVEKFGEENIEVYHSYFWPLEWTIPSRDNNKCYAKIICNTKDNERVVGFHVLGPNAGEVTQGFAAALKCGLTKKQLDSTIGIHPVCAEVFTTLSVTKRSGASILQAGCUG
Chain of gluthathione reductase (GR) (P00390 44-522): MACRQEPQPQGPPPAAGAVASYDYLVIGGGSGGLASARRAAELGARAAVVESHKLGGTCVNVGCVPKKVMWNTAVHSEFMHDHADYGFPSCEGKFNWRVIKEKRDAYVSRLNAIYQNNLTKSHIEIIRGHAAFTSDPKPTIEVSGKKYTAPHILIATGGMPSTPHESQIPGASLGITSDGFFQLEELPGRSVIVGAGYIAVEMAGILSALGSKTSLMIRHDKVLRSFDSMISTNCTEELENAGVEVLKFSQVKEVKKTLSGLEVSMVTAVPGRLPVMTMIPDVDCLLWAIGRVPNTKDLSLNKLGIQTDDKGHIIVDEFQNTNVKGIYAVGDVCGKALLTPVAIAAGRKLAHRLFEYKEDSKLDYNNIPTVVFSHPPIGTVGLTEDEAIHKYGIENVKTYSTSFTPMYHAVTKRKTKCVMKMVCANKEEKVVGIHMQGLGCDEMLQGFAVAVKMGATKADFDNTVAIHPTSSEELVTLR

As for `O=[N+]([O-])c1ccc(Cl)nc1S(=O)(=O)C1CCCC1` [Example 5, 6-Chloro-2-(cyclopentylsulfonyl)-3-nitropyridine], the half-inhibitory concentration (IC50) is 60.5 µM in assay [1], 181 nM in assay [2] and 1010 nM with FaDu cells.
On to `COc1ccc([N+](=O)[O-])c(S(=O)(=O)C2CCCC2)n1` [Example 2, 2-Cyclopentylsulfonyl-6-methoxy-3-nitropyridine], for which the IC50 is more than 100 µM in assay [1], 1030 nM in assay [2] and 3650 nM in the assay on FaDu cells.
For `CCCCCCS(=O)(=O)c1nc(N(C)C)ccc1[N+](=O)[O-]` [Example 9, 6-Dimethylamino-2-hexylsulfonyl-3-nitropyridine], the 50% inhibitory concentration (IC50) in assay [1] is more than 100 µM; in assay [2], 333 nM; in the assay on FaDu cells, 12700 nM.
`COc1ccc([N+](=O)[O-])c(S(=O)(=O)Cc2ccccc2)n1` [Example 1, 2-Benzylsulfonyl-6-methoxy-3-nitropyridine]: the IC50 was 2890 nM with MDA-MB-468; 3.81 µM with MDA-MB-231 cells; more than 100 µM in assay [1]; 1800 nM in the assay with MDA-MB-231; 18.2 nM in assay [2]; 6.11 µM with U-87 MG. This molecule displayed an IC50 with FaDu cells of 280 nM.
With `CCCCCCS(=O)(=O)c1nc(OC)ccc1[N+](=O)[O-]` [Example 3, 2-Hexylsulfonyl-6-methoxy-3-nitropyridine], the IC50 is more than 100 µM in assay [1], 489 nM in assay [2] and 450 nM in the assay with FaDu cells.
For `O=[N+]([O-])c1ccc(Cl)nc1S(=O)(=O)Cc1ccccc1` [Example 4, 2-Benzylsulfonyl-6-chloro-3-nitropyridine], in that order: 18.1 µM, 39.2 nM and 660 nM.
In the same order, the values of `CCCCCCS(=O)(=O)c1nc(Cl)ccc1[N+](=O)[O-]` [Example 6, 6-Chloro-2-(hexylsulfonyl)-3-nitropyridine] are 8.76 µM, 56 nM and 710 nM.
